Assay results as given in ChEMBL document CHEMBL5331099, “Chemical scaffold recycling: Structure-guided conversion of an HIV integrase inhibitor into a potent influenza virus RNA-dependent RNA polymerase inhibitor designed to minimize resistance potential” (Eur J Med Chem, 2023).

Assay: Binding affinity to Influenza A virus PA endonuclease I39T mutant assessed as dissociation constant by MST assay

Row | Structure (SMILES) | Kd [µM]
1 | COc1cnccc1CCNC(=O)c1nc(-c2ccccc2C(F)(F)F)[nH]c(=O)c1O | 0.032
2 | O=C1c2c(O)c(=O)ccn2N([C@@H]2c3ccccc3SCc3c2ccc(F)c3F)C2COCCN12 (stereo partly drawn) | 9.3
3 | Nc1ncnc2c1ncn2CCNC(=O)c1nc(-c2ccccc2C(F)(F)F)[nH]c(=O)c1O | 0.016
